Results taken from article PMC11571207, “Stereorandomized Oncocins with Preserved Ribosome Binding and Antibacterial Activity” (Journal of Medicinal Chemistry, 2024).
In brackets after ≈: the same amount, converted by molar mass. Non-standard residues stand in square brackets, D forms with d. Residues, ends and D or L forms follow the SMILES beside them.

Key:
A. baumannii ATCC19606 = assay: microbe, parasite or virus in culture; details: for MIC A. baumannii, 12.5% MHB / MIC A. baumannii, Full MHB: A. baumannii ATCC19606, 16–20 h at 37 °C; for MIC A. baumannii, 12.5% MHB: 12.5% Müller–Hinton medium; for MIC A. baumannii, Full MHB: full Müller–Hinton medium; for MIC A. baumannii ATCC19606: supplement CSV
From the text: (§1) We tested antibacterial effects against the Gram-negative bacteria Escherichia coli, Klebsiella pneumoniae, Pseudomonas aeruginosa, and Acinetobacter baumannii and the Gram-positive methicillin-resistant Staphylococcus aureus (MRSA).
(§2) Bacterial growth assay (Figure S1), transmission electron microscopy (Figure S6), serum stability assay (Figure S7), circular dichroism spectral recording (Figures S8 and S9), antimicrobial and hemolysis activity assays (MIC and MHC), and vesicle leakage assay were carried out as described in earlier publications.[43],[44]
(§3) Minimum inhibitory concentration assay
(§4) Antimicrobial activity was assayed against P. aeruginosa PAO1, K. pneumoniae NCTC418, E. coli W3110, A. baumannii ATCC 19606, methicillin-resistant S. aureus COL (MRSA), and for selected peptides on P. aeruginosa PA14 and the polymyxin-B-resistant derivative PA14 2P4, as well as the clinical isolates ZEM-1A and ZEM9A, K. pneumoniae OXA-48, S. aureus Newman, Enterobacter cloacae and Burkholderia cenocepacia. The minimal inhibitory concentration (MIC) was determined by using broth microdilution method. A colo ny of bacteria was picked and grown in Luria-Bertani (LB) medium overnight at 37°C. For E. coli BW25113 sbmA::kan the medium was supplemented with 25 mg/L of kanamycin. The next day, the culture was then regrown in LB medium to log phase (OD600 = 0.6 to 0.8), which lasted approximately 4 h, and diluted to an OD600 of 0.022 in the desired medium. Stock solutions of 1 mg/mL of the samples were prepared in sterilized milliQ water and diluted to the beginning concentration of 64 μg/mL in 300 μL Mueller Hinton (MH)-medium. The diluted samples were added to first well of 96-well microtiter plate (TPP, untreated, Faust Laborbedarf, AG, Schaffhausen) and diluted serially by ½. Finally, 4 μL of the bacterial suspension was inoculated into the sample solutions (150 μL/well) with a final inoculation of about 5∙10^5 CFU/mL. The plates were then incubated at 37°C for 15-18h. For each assay, sterility (broth only) and growth control (broth with bacterial inoculum, without antibiotics) were checked with two columns in the plate. The next day, 15 μL of 3-(4,5-dimethylthiazol-2-yl)-2,5-diphenyltetrazolium bromide (MTT) was added to each well of the plate, such a way that MIC was defined as the lowest concentration of the peptide that inhibited visible growth of the tested

E. coli W3110 = assay: microbe, parasite or virus in culture; details: for MIC E. coli, 12.5% MHB / MIC E. coli, Full MHB: E. coli W3110, 16–20 h at 37 °C, broth microdilution; for MIC E. coli, 12.5% MHB: 12.5% Müller–Hinton medium; for MIC E. coli, Full MHB: full Müller–Hinton medium; for MIC E. coli W3110: supplement CSV
From the text: as §1, §2, §3, §4

K. pneumoniae NCTC 418 = assay: microbe, parasite or virus in culture; details: for MIC K. pneumoniae, 12.5% MHB / MIC K. pneumoniae, Full MHB: K. pneumoniae NCTC 418, 16–20 h at 37 °C; for MIC K. pneumoniae, 12.5% MHB: 12.5% Müller–Hinton medium; for MIC K. pneumoniae, Full MHB: full Müller–Hinton medium; for MIC K. pneumoniae NCTC418: supplement CSV
From the text: as §1, §2, §3, §4

P. aeruginosa PAO1 = assay: microbe, parasite or virus in culture; details: for MIC P. aeruginosa, 12.5% MHB / MIC P. aeruginosa, Full MHB: P. aeruginosa PAO1, 16–20 h at 37 °C; for MIC P. aeruginosa, 12.5% MHB: 12.5% Müller–Hinton medium; for MIC P. aeruginosa, Full MHB: full Müller–Hinton medium; for MIC P. aeruginosa PAO1: supplement CSV
From the text: as §1, §2, §3, §4

S. aureus COL (MRSA) = assay: microbe, parasite or virus in culture; details: for MIC S. aureus, 12.5% MHB / MIC S. aureus, Full MHB: S. aureus COL (MRSA), 16–20 h at 37 °C; for MIC S. aureus, 12.5% MHB: 12.5% Müller–Hinton medium; for MIC S. aureus, Full MHB: full Müller–Hinton medium; for MIC S. aureus COL (MRSA): supplement CSV
From the text: as §1, §2, §3, §4

human red blood cells = assay: Hemolysis assay, minimum hemolytic concentration; details: for Haemolysis on hRBC, MHC: 2.5% human red blood cells (final) in 10 mM phosphate, 150 mM NaCl, pH 7.4, 25 °C, 4 h, visual inspection; for MHC human red blood cells: supplement CSV

| Structure (SMILES) | MIC A. baumannii, 12.5% MHB (A. baumannii ATCC19606) | MIC A. baumannii, Full MHB (A. baumannii ATCC19606) | MIC A. baumannii ATCC19606 (A. baumannii ATCC19606; 12.5% MH pH 7.4) | MIC A. baumannii ATCC19606 (A. baumannii ATCC19606; full MH pH 7.4) | MIC E. coli, 12.5% MHB (E. coli W3110) | MIC E. coli, Full MHB (E. coli W3110) | MIC E. coli W3110 (E. coli W3110; 12.5% MH pH 7.4) | MIC E. coli W3110 (E. coli W3110; full MH pH 7.4) | MIC K. pneumoniae, 12.5% MHB (K. pneumoniae NCTC 418) | MIC K. pneumoniae, Full MHB (K. pneumoniae NCTC 418) | MIC K. pneumoniae NCTC418 (K. pneumoniae NCTC 418; 12.5% MH pH 7.4) | MIC K. pneumoniae NCTC418 (K. pneumoniae NCTC 418; full MH pH 7.4) | MIC P. aeruginosa, 12.5% MHB (P. aeruginosa PAO1) | MIC P. aeruginosa, Full MHB (P. aeruginosa PAO1) | MIC P. aeruginosa PAO1 (P. aeruginosa PAO1; 12.5% MH pH 7.4) | MIC P. aeruginosa PAO1 (P. aeruginosa PAO1; full MH pH 7.4) | MIC S. aureus, 12.5% MHB (S. aureus COL (MRSA)) | MIC S. aureus, Full MHB (S. aureus COL (MRSA)) | MIC S. aureus COL (MRSA) (S. aureus COL (MRSA); 12.5% MH pH 7.4) | MIC S. aureus COL (MRSA) (S. aureus COL (MRSA); full MH pH 7.4) | also measured |
| --- | --- | --- | --- | --- | --- | --- | --- | --- | --- | --- | --- | --- | --- | --- | --- | --- | --- | --- | --- | --- | --- |
| CC[C@H](C)[C@H](NC(=O)[C@H](CCCNC(=N)N)NC(=O)[C@H](CCCNC(=N)N)NC(=O)[C@@H]1CCCN1C(=O)[C@@H]1CCCN1C(=O)[C@H](CCCNC(=N)N)NC(=O)[C@@H]1CCCN1C(=O)[C@H](CCCNC(=N)N)NC(=O)[C@@H]1CCCN1C(=O)[C@H](CC(C)C)NC(=O)[C@H](Cc1ccc(O)cc1)NC(=O)[C@H]1CCCN1C(=O)[C@@H]1CCCN1C(=O)[C@H](CCCCN)NC(=O)[C@H](CC(=O)O)NC(=O)[C@@H](N)C(C)C)C(=O)N[C@@H](Cc1ccc(O)cc1)C(=O)N[C@@H](CC(N)=O)C(=O)N[C@@H](CCCNC(=N)N)C(N)=O [DP5-Onc] (H-VDKP[dP]YLPRPRPPRRIYNR-NH2) | 16 µg/mL (≈ 6.69 µM) | > 64 µg/mL | 16 µg/mL (≈ 6.69 µM) | >64 µg/mL | 4 µg/mL (≈ 1.67 µM) | 32 µg/mL (≈ 13.4 µM) | 4 µg/mL (≈ 1.67 µM) | 32 µg/mL (≈ 13.4 µM) | > 16 µg/mL | > 64 µg/mL | >16 µg/mL | >64 µg/mL | > 16 µg/mL | > 64 µg/mL | >16 µg/mL | >64 µg/mL | >64 / 64 μg/mL | >64 / 64 μg/mL | 64 µg/mL (≈ 26.8 µM) | >64 µg/mL | Haemolysis on hRBC, MHC (human red blood cells): >1000 µg/mL; MHC human red blood cells (human red blood cells): >1000 µg/mL |
| CC[C@H](C)[C@H](NC(=O)[C@H](CCCNC(=N)N)NC(=O)[C@H](CCCNC(=N)N)NC(=O)[C@@H]1CCCN1C(=O)[C@@H]1CCCN1C(=O)[C@@H](CCCNC(=N)N)NC(=O)[C@@H]1CCCN1C(=O)[C@H](CCCNC(=N)N)NC(=O)[C@@H]1CCCN1C(=O)[C@H](CC(C)C)NC(=O)[C@H](Cc1ccc(O)cc1)NC(=O)[C@@H]1CCCN1C(=O)[C@@H]1CCCN1C(=O)[C@H](CCCCN)NC(=O)[C@H](CC(=O)O)NC(=O)[C@@H](N)C(C)C)C(=O)N[C@@H](Cc1ccc(O)cc1)C(=O)N[C@@H](CC(N)=O)C(=O)N[C@@H](CCCNC(=N)N)C(N)=O [DR11-Onc] (H-VDKPPYLPRP[dR]PPRRIYNR-NH2) | 16 µg/mL (≈ 6.69 µM) | 32 µg/mL (≈ 13.4 µM) | 16 µg/mL (≈ 6.69 µM) | 32 µg/mL (≈ 13.4 µM) | 2 µg/mL (≈ 0.837 µM) | 16 µg/mL (≈ 6.69 µM) | 2 µg/mL (≈ 0.837 µM) | 16 µg/mL (≈ 6.69 µM) | 2 µg/mL (≈ 0.837 µM) | 16 µg/mL (≈ 6.69 µM) | 2 µg/mL (≈ 0.837 µM) | 16 µg/mL (≈ 6.69 µM) | 16 µg/mL (≈ 6.69 µM) | > 64 µg/mL | 16 µg/mL (≈ 6.69 µM) | >64 µg/mL | >64 / >64 μg/mL | >64 / >64 μg/mL | >64 µg/mL | >64 µg/mL | Haemolysis on hRBC, MHC (human red blood cells): >1000 µg/mL; MHC human red blood cells (human red blood cells): >1000 µg/mL |
